# Tested on: Candida albicans SC5314
# Experiment: Susceptibility of Candida albicans, broth microdilution method
# Type: cell-based
# Details: 24 hours, replicate 1
# Protocol: Susceptibility of Candida albicans SC5314 to milk EVs and milk EVs loaded with Amphotericin B (AmpB) was performed by the broth microdilution method, using RPMI-1640 medium and MOPS buffer in a concentration range from 200 nM and 0.39 nM for AmpB loaded EVs and equal particles/mL of unloaded EVs. AmpB alone was also tested at concentrations from 8 µM to 15.12 nM.
# The broth micro dilution test is performed using sterile round bottomed 96 well microtiter plates. 50 μL of 1×PBS at pH 7.4 is added to Rows 1 to Row 7, except for Column 1 of Row 3 to Row 7. 100 μL of EVs (BMEV, BMEV-AmpB, GMEV and GMEV-AmpB) at 2× desired concentrations is added to Rows 4 to Row 7 of Column 1. 100 μL of AmpB at 2× desired concentration (i.e. 16 μM) is added to Row 3 of Column 1. 2-fold dilutions were performed by transferring 50 μL from Column 1 to Column 10 of Rows 3 to 7, and homogenised to ensure proper dilution of the compound by half. Row 1 was used as a blank for spectrophotometric readings and Row 2 is used as a growth control. After the plates are prepared, 2× inoculum concentration are prepared with a total cell concentration of 1e+3 to 5e+3 CFU/mL prepared in RPMI 1640 media (with glutamine, without bicarbonate, and with phenol red as a pH indicator) in MOPS according to CLSI media preparation guidelines. Each well of the microtiter plate was inoculated with 50 μL of the 2× inoculum to yield a final cell concentration of 0.5e+3 to 2.5e+3 CFU/mL in the wells. After inoculation, the plates are incubated at 35° C. for 24 hours. Post-incubation, the plates are read at 600 nm using the Thermo Scientific Multiskan Go, and data was recorded. Agitation prior to reading the plate will help with accurate readings.
# 10.4 g powdered RPMI 1640 medium (with glutamine and phenol red, without bicarbonate); 34.53 g MOPS (3-[N-morpholino] propanesulfonic acid) buffer.
# Dissolve powdered medium in 900 mL distilled H2O. Add MOPS (final concentration of 0.165 mol/L) and stir until dissolved. While stirring, adjust the pH to 7.0 at 25° C. using 1 mol/L sodium hydroxide.
# Add additional water to bring medium to a final volume of 1 L. Filter sterilize and store at 4° C. until use.
# The steps for preparation of inoculum are as follows: • I. Candida albicans SC5314 was subcultured from sterile vials onto Sabouraud dextrose agar or Potato Dextrose agar and passaged to ensure purity and viability. The incubation temperature throughout was 35° C. • II. The inoculum was prepared by picking five colonies of ca. 1 mm in diameter from 24-hour old culture. The colonies were suspended in 1 mL of sterile 1×PBS at pH 7.4. A 10-fold dilution was prepared in PBS. 10 μL of the diluted inoculum with equal volume of Trypan Blue was mixed and counted using a haemocytometer. • III. The suspension should be vortexed for 15 seconds and the cell density adjusted by adding sufficient sterile 1×RPMI-1640 to yield a cell concentration of 1e+3 to 5e+3 CFU/mL.
compound,measurement,setting,value
"C[C@@H]1[C@H](O)[C@@H](C)/C=C/C=C/C=C/C=C/C=C/C=C/C=C/[C@H](O[C@@H]2O[C@H](C)[C@@H](O)[C@H](N)[C@@H]2O)C[C@@H]2O[C@](O)(C[C@@H](O)C[C@@H](O)[C@H](O)CC[C@@H](O)C[C@@H](O)CC(=O)O[C@H]1C)C[C@H](O)[C@H]2C(=O)O [AmpB, Amphotericin B]",Abs (read at 600 nm),AmpB concentration 15.12 nM,0.13
same,Abs (read at 600 nm),AmpB concentration 31.25 nM,0.15
same,Abs (read at 600 nm),AmpB concentration 62.5 nM,0.13
same,Abs (read at 600 nm),AmpB concentration 125 nM,0.15
same,Abs (read at 600 nm),AmpB concentration 250 nM,0.13
same,Abs (read at 600 nm),AmpB concentration 500 nM,0.08
same,Abs (read at 600 nm),AmpB concentration 1 μM,0.08
same,Abs (read at 600 nm),AmpB concentration 2 μM,0.00
same,Abs (read at 600 nm),AmpB concentration 4 μM,0.00
same,Abs (read at 600 nm),AmpB concentration 8 μM,0.00

# Reference: patent US20250295600A1, “EXTRACELLULAR VESICLES DERIVED FROM MILK AND PROCESS FOR ISOLATING THE SAME” (EVOBIOTIX SA, priority 2021, published 2025)
